Data: patent US11667601B2, “Calcium BOPTA complex” (BRACCO IMAGING S.P.A., priority 2019, dated 2023)

Test: Solubility in water of the isolated solid form
Assay type: physicochemical
Conditions: solid form obtained by the ethanol precipitation process

Substance: (4RS)-[4-carboxy-5,8,11-tris(carboxymethyl)-1-phenyl-2-oxa-5,8,11-triazatridecan-13-oato(5-)] calciate(3-) trisodium [Ca-BOPTA trisodium salt]
- solubility of the solid form: soluble in water
